Results from US20220184015A1, “COMPOSITIONS AND METHODS TO POTENTIATE MUSCULOSKELETAL EFFECT OF ONE OR MORE ANABOLIC AMINO ACIDS ON BONE HEALTH” (SOCIETE DES PRODUITS NESTLE S.A., priority 2019, published 2022).

Tests used:
Type in all cases: in vivo
[1] = test system: LC3 protein fused to ZsGreen under the control of a skeletal muscle specific promoter; assay: zebrafish autophagy reporter, number of LC3 punctae in larvae; conditions: for effect on basal autophagy: summary statement referring to the experimental data; for autophagy activation by individual amino acids (FIG. 1) / autophagy activation by individual amino acids (FIG. 3) / autophagy activation by individual amino acids (FIG. 2): zebrafish larvae, 0.25 to 10 mM, 16 hours of treatment
From the text: Z stack images were captured for each larva and maximal projection images were produced. Number of LC3 punctae have been calculated with MetaXpress software (Moleculare Devices) and normalized by fish area.

bone mineral density = bone mineral density in old mice after 3 months; conditions: old mice (78 weeks old), thymol by gavage, AA mix in water, FIG. 6a
From the text: (§1) Assessment of the long term (3 months) effect of thymol (an exemplary autophagy-inducing agent) and an amino acid mix, known as autophagy inducers, alone or in combination, on muscle function in old mice. […] Old mice (78 weeks old; n=12/group; inventions) were taking 1) thymol (compound 1); 2) an amino acid (AA) mix and thymol (compounds 2 and 1); or 3) the AA mix (compound 2). In the experiments, thymol was given by gavage; the AA mix was given in water; and alanine for isonitrogenous was given as a control to young mice (Adult). Old untreated mice were also used as another control (old untreated). The AA mix comprises 28.67% of Leucine, 14.29% of Isoleucine, 14.29% of Valine, 12.21% of Proline, 12.21% of Glycine, 14.84% of Lysine and 3.48% of Cysteine (See Table 1).

bone stiffness = bone stiffness (bone strength) in old mice after 3 months; conditions: old mice (78 weeks old), thymol by gavage, AA mix in water, FIG. 6b
From the text: as §1

Compound | effect on basal autophagy [1] | autophagy activation by individual amino acids (FIG. 1) [1] | autophagy activation by individual amino acids (FIG. 2) [1] | further results
NC(=O)CC[C@H](N)C(=O)O [Glutamine] | reduce basal autophagy |  |  | 
N[C@@H](Cc1ccccc1)C(=O)O [Phenylalanine] |  | show at least some autophagy activation effects |  | 
N=C(N)NCCC[C@H](N)C(=O)O [Arginine] | reduce basal autophagy | show at least some autophagy activation effects |  | autophagy activation by individual amino acids (FIG. 3) [1]: shows less autophagy activation effects
CC(C)C[C@H](N)C(=O)O [Leucine] | reduce basal autophagy |  | does not show any autophagy activation effect | 
N[C@@H](CS)C(=O)O [Cysteine] |  | show at least some autophagy activation effects | show autophagy activation effects | 
CC(C)[C@H](N)C(=O)O [Valine] |  | show at least some autophagy activation effects | show autophagy activation effects | 
N[C@@H](Cc1ccc(O)cc1)C(=O)O [Tyrosine] |  | show at least some autophagy activation effects |  | 
N[C@@H](CCC(=O)O)C(=O)O [Glutamate] |  | show at least some autophagy activation effects |  | autophagy activation by individual amino acids (FIG. 3) [1]: show clear autophagy activation effects
Cc1ccc(C(C)C)c(O)c1 [thymol] |  |  |  | increase in bone mineral density as compared with the control of the old untreated (bone mineral density): 1.6%; increase in bone stiffness as compared with the control of the old untreated (bone stiffness): 12%
NCC(=O)O [Glycine] |  | show at least some autophagy activation effects | show autophagy activation effects | 
O=C(O)[C@@H]1CCCN1 [Proline] |  | show at least some autophagy activation effects |  | autophagy activation by individual amino acids (FIG. 3) [1]: show clear autophagy activation effects
NC(=O)C[C@H](N)C(=O)O [Asparagine] |  | show at least some autophagy activation effects |  | 
CC[C@H](C)[C@H](N)C(=O)O [Isoleucine] | reduce basal autophagy |  |  | 
